The source of these data is ChEMBL document CHEMBL1255235, “Molecular basis for resistance of acanthamoeba tubulins to all major classes of antitubulin compounds” (Antimicrob Agents Chemother, 2008).

The subject of one assay is Acanthamoeba polyphaga. Briefly: Antimicrobial activity against Acanthamoeba polyphaga. The format is functional, organism-based.
The subject of the next assay is Acanthamoeba castellanii. Briefly: Antimicrobial activity against Acanthamoeba castellanii. It is filed as functional, organism-based.
The nature of assay [1]: Inhibition of tubulin in Acanthamoeba polyphaga by alamar blue assay. (Resazurin is reduced to fluorescent resorufin, in cell work by metabolically active cells.)
The nature of assay [2]: Inhibition of tubulin in Acanthamoeba castellanii by alamar blue assay.
Assay [3] is described as follows: Inhibition of tubulin in rabbit corneal cells by alamar blue assay. It is filed as cell-based. To be noted: Oryctolagus cuniculus, Cornea.
A further assay has as its system Toxoplasma gondii. Briefly: Antimicrobial activity against Toxoplasma gondii. It is filed as functional, organism-based.
The next assay has as its system Leishmania sp. Briefly: Antimicrobial activity against Leishmania sp. It is filed as functional, organism-based.

Take `N=C(NCCCCCCNC(=N)NC(=N)Nc1ccc(Cl)cc1)NC(=N)Nc1ccc(Cl)cc1` [CHLORHEXIDINE]: the IC50 with Acanthamoeba polyphaga worked out at 3.12 µM; in the assay with Acanthamoeba castellanii, 1.56 µM.
`COc1cc2c(c(OC)c1OC)-c1ccc(OC)c(=O)cc1[C@@H](NC(C)=O)CC2` [COLCHICINE]: the figures for the IC50 in assay [1], in assay [2] and in assay [3] were 2500 µM, 2.5 µM and 2.4 µM, respectively.
`CC(=O)O[C@H]1C(=O)[C@@]2(C)[C@H]([C@H](OC(=O)c3ccccc3)[C@]3(O)C[C@H](OC(=O)[C@H](O)[C@@H](NC(=O)c4ccccc4)c4ccccc4)C(C)=C1C3(C)C)[C@]1(OC(C)=O)CO[C@@H]1C[C@@H]2O` [PACLITAXEL]: the IC50 is 1 µM in the assay on Toxoplasma gondii; 0.035 µM in the assay on Leishmania sp.; above 10 µM in assay [1]; above 10 µM in assay [2]; 0.04 µM in assay [3].
Turning to `CCCSc1ccc2[nH]c(NC(=O)OC)nc2c1` [ALBENDAZOLE], the IC50 in assay [1] was above 47 µM; in assay [2], above 47 µM; in assay [3], 0.7 µM.
On to `CCCN(CCC)c1c([N+](=O)[O-])cc(S(N)(=O)=O)cc1[N+](=O)[O-]` [ORYZALIN], for which the IC50 in assay [1] is above 100 µM; in assay [2] it was above 100 µM; in assay [3] it was above 500 µM.
Take `CC[C@]1(O)C[C@@H]2CN(CCc3c([nH]c4ccccc34)[C@@](C(=O)OC)(c3cc4c(cc3OC)N(C)[C@H]3[C@@](O)(C(=O)OC)[C@H](OC(C)=O)[C@]5(CC)C=CCN6CC[C@]43[C@@H]65)C2)C1` [VINBLASTINE]: the IC50 in assay [1] is 0.68 µM; in assay [2], 0.68 µM; in assay [3], 0.017 µM.

In general, IC50 refers to the point on the concentration scale where inhibition reaches its midpoint. Low readings indicate greater potency, high ones weaker potency.
